# Data taken from patent publication US8026218B2, “Bifunctional analgesic compounds for opioid receptor agonists and neurokinin-1 receptor antagonists” (The University of Arizona, priority 2006, dated 2011).
# Where two headings read alike, the source gives them in different places. Peptide text beside a SMILES is read from it.
# Assays:
# [1] = molecular target: T1, rat NK1 (rNK1) receptor (Rattus norvegicus, UniProt P14600); test: Radioligand competition binding, [3H]substance P, rNK1/CHO membranes; conditions: for IC50: LogIC50, rNK1, [3H]Substance P, logarithm of IC50 (negative), CHO cell membranes
# T1 construct: expressed in transfected cells; host or cells: CHO (rNK-1/CHO cell line from Dr. James Krause)
# [2] = molecular target: T2, human NK1 receptor (hNK1) (Homo sapiens, UniProt P25103); test: Radioligand competition binding, [3H]-Substance P, hNK1
# T2 construct: expressed in transfected cells
# [3] = molecular target: T3, Substance P receptors (guinea pig NK1) (Cavia porcellus, UniProt P30547); test: Guinea pig isolated ileum (GPI) assay with substance P stimulation in presence of 1 μM naloxone; conditions: for GPI/LMMP SP Agonist (IC50; nM): Table 39
# T3 construct: from tissue; host or cells: guinea pig (Hartley) ileum LMMP, 1 μM naloxone present
# [4] = Octanol/saline distribution (logD7.4); type: physicochemical; conditions: 0.05 N HEPES buffer in 0.1 N NaCl
# Protocol: HEPES buffer (0.05 M HEPES buffer in 0.1 M NaCl, pH 7.4, 500 μL) was added to 2 mg of compound and mixed with 500 μL of 1-octanol. The sample was shaken at r.t. for 12 h to allow equilibrating. The sample was centrifuged at 6500 rpm in a VanGuard V6500 (GlaxoSmithKline, Research Triangle Park, N.C.) for 15 min. The layers were separated and each layer was centrifuged once again. The compound concentrations of obtained layers were analyzed by HPLC (30-70% of acetonitrile containing 0.1% TFA within 20 min and up to 95% within additional 5 min, 1 mL/min, 230 nm, Vydac 218TP104 C-18 column). The logarithm of 1-octanol/saline distribution (logD7.4) was calculated as the ratio of compound concentration in the 1-octanol and saline phases.
# Octanol/saline distribution (logD7.4) (Yamamoto, 2007, J. Med. Chem., submitted). HEPES buffer (0.05 M HEPES buffer in 0.1 M NaCl, pH 7.4, 500 μL) was added to 2 mg of compound and mixed with 500 μL of 1-octanol. The sample was shaken at r.t. for 12 h to allow equilibrating. The sample was centrifuged at 6500 rpm in a VanGuard V6500 (GlaxoSmithKline, Research Triangle Park, N.C.) for 15 min. The layers were separated and each layer was centrifuged once again. The compound concentrations in the obtained layers were analyzed by HPLC (30-70% of acetonitrile containing 0.1% TFA within 20 min and up to 95% within additional 5 min, 1 mL/min, 230 nm, Vydac 218TP104 C-18 column). The logarithm of 1-octanol/saline distribution (logD7.4) was calculated as the ratio of compound concentration in the 1-octanol and saline phases.
# [5] = molecular target: T4, human δ opioid receptors (hDOR) (Homo sapiens, UniProt P41143); test: Radioligand competition binding, [3H]DPDPE, hDOR membranes
# T4 construct: expressed in transfected cells; host or cells: HN9.10 neuroblastoma cell line, pCDNA3, neomycin-selected clones
# [6] = molecular target: T5, rat μ opioid receptors (rMOR) (Rattus norvegicus, UniProt P33535); test: Radioligand competition binding, [3H]DAMGO, rMOR membranes
# T5 construct: expressed in transfected cells; host or cells: HN9.10 neuroblastoma cell line, pCDNA3, neomycin-selected clones
# [7] = molecular target: T4, human δ opioid receptors (hDOR); test: [35S]GTP-γ-S binding assay, hDOR; type: biochemical
# [8] = molecular target: T5, rat μ opioid receptors (rMOR); test: biochemical; type: biochemical
# [9] = molecular target: T6, δ opioid receptors (MVD) (Mus musculus, UniProt P32300); test: Mouse isolated vas deferens (MVD) assay, opioid agonist
# T6 construct: from tissue; host or cells: mouse (ICR) isolated vas deferens
# [10] = test system: μ opioid receptors (GPI); test: Guinea pig isolated ileum (GPI) assay, opioid agonist;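 also: inhibition of electrically evoked contractions (0.1 Hz, 0.4 msec, supramaximal voltage) in organ baths at 37 °C, contraction height 3 min after each cumulative dose versus the 1 min before dosing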
# Protocol: Guinea Pig Isolated Ileum Assay. […] These tissues were tied to gold chains with suture silk and mounted between platinum wire electrodes in 20 mL organ baths at a tension of 1 g and bathed in oxygenated (95:5 O2:CO2) Kreb's bicarbonate buffer at 37° C. and stimulated electrically (0.1 Hz, 0.4 msec duration) at supramaximal voltage. Following an equilibration period, compounds were added cumulatively to the bath in volumes of 14-60 μL until maximum inhibition was reached. A baseline PL-017 was constructed to determine tissue integrity and allow calculation of antagonist activity before opioid analog testing began.
# For opioid data analysis, percentage inhibition was calculated using the average tissue contraction height for 1 min preceding the addition of the agonist divided by the contraction height 3 min after exposure to the dose of agonist. […] IC50 and Emax estimates were determined by computerized nonlinear least-squares analysis (the pharmacological statistics package FlashCalc: Dr. Michael Ossipov, University of Arizona, Tucson, Ariz.). […] A50 values represent the mean of not less than 4 tissues. A50 and Emax estimates were determined by computerized nonlinear least-squares analysis (FlashCalc).
# [11] = In vitro stability in rat plasma at 37° C.; type: in vitro ADME; conditions: rat, rat plasma, read-out: half life (T1/2) in rat plasma (converted)
# Protocol: The derivative compounds were tested for their metabolite stability. The compounds were incubated in rat plasma at 37° C., and aliquots were withdrawn at various time points and analyzed by HPLC to determine the concentration of remaining compound derivatives (FIGS. 15-16, 36, and 47-48).
# In Vitro Stability of compound derivatives in Rat Plasm (Yamamoto, 2007, J. Am. Chem. Soc. submitted). Stock solution of compounds (50 mg/mL in DMSO) were diluted 1000-fold into rat plasma (Lot 24927, Pel-Freez Biologicals, Rogers, Ak.) to result in an incubation concentration of 50 μg/mL. All samples were incubated at 37° C. for 6 h, and 200 μL of aliquots were withdrawn at 1 h, 2 h, 4 h and 6 h. […] The samples were run in triplicate. Discussion.
# [12] = Solubility in HEPES buffer; type: physicochemical; conditions: Table 26; HEPES buffer pH 7.4
# Protocol: Solubility. HEPES buffer (0.05 M HEPES buffer in 0.1 M NaCl, pH 7.4, 500 μL) was added to 1 mg of compound. The sample was vortexed for 30 sec, sonicated for 5 min, shaken at r.t. for 2 h, and then allowed to be stayed overnight to equilibration. The sample was filtrated with an Acrodisc Syringe Filter (13 mm, 0.45 μm pore, PTFE membrane, Pall Life Sciences, East Hills, N.Y.).
# [13] = read-out: Inhibition % at 1 μM, rNK1, [3H]Substance P
# [14] = Table 39, read-out: Affinity hNK1 (Ki; nM)
# [15] = read-out: Ki (nM), hNK1, [3H]Substance P, Table 6, CHO cell membranes
# [16] = read-out: GTP binding rMOR Emax
# [17] = read-out: GTP binding hDOR Emax
# [18] = read-out: GTP binding hDOR Emax (%)
# [19] = Table 24, read-out: GTP binding rMOR Emax (%)
# [20] = Table 39, read-out: GTP binding rMOR Emax
# T1 sequence (P14600 whole entry): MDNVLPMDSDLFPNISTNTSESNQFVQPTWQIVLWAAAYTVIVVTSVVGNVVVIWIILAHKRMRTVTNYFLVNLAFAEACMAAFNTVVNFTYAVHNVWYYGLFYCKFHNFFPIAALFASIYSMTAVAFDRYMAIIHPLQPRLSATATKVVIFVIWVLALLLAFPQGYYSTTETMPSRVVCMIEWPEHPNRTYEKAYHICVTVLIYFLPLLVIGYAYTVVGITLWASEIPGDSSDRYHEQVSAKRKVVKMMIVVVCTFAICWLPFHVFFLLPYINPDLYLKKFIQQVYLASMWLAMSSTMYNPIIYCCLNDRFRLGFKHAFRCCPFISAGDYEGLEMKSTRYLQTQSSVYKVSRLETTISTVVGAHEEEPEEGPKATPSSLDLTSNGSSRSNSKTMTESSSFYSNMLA
# T4 sequence (P41143 whole entry): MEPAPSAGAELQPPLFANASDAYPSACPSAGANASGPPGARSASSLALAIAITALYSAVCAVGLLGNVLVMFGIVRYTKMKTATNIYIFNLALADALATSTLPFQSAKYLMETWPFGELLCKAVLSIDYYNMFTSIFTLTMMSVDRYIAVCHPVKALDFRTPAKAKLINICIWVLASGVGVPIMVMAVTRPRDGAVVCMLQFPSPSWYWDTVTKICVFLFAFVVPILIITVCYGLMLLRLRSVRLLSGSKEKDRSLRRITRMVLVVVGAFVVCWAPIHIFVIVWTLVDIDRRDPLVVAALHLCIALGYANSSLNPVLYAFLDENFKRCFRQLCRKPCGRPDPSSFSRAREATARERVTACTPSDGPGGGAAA
# T3 sequence (P30547 whole entry): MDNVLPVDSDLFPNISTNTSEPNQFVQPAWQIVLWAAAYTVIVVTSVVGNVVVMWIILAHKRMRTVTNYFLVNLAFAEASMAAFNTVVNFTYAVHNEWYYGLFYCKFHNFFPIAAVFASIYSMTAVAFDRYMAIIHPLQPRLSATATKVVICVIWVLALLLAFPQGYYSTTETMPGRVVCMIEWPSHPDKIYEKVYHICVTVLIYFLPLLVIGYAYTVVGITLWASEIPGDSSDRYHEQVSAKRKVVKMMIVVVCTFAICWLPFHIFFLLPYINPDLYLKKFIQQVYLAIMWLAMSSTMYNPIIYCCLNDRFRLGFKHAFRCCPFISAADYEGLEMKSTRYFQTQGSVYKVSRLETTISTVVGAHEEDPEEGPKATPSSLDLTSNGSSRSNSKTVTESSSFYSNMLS
# T2 sequence (P25103 whole entry): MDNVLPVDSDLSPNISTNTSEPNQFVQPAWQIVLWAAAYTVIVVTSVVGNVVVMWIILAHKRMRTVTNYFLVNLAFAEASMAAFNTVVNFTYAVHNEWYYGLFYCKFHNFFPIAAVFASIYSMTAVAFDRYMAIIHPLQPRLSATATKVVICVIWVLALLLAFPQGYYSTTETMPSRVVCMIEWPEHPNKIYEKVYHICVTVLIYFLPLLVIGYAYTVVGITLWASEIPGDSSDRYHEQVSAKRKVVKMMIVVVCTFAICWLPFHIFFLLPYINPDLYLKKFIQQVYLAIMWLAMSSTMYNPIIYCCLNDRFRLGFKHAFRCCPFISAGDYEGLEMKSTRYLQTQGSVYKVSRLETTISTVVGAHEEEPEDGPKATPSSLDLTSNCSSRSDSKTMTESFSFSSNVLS
# T5 sequence (P33535 whole entry): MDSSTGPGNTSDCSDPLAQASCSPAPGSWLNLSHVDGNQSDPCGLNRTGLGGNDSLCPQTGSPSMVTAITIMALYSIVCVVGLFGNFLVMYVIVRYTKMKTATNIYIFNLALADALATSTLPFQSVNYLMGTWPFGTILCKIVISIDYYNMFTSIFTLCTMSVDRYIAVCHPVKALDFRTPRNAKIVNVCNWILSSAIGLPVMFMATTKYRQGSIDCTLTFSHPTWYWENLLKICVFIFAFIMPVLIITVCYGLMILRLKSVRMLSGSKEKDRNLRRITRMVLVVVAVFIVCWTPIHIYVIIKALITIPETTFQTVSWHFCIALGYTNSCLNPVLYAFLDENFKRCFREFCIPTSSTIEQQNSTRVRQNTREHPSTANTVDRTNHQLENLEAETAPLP
# T6 sequence (P32300 whole entry): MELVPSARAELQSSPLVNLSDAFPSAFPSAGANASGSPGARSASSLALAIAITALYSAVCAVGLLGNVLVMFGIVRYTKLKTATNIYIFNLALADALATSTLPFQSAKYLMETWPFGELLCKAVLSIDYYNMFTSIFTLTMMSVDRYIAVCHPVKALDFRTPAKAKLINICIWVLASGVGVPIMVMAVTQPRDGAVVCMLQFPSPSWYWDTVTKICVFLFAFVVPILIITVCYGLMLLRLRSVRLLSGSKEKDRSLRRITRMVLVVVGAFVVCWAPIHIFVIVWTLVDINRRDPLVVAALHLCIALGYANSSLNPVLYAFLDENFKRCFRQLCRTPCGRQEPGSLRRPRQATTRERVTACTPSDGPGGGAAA
smiles,measurement,setting,value
"CC(C)C[C@H](NC(=O)[C@@H]1CCCN1C(=O)[C@H](Cc1ccccc1)NC(=O)CNC(=O)[C@@H](C)NC(=O)[C@@H](N)Cc1ccc(O)cc1)C(=O)N[C@@H](Cc1c[nH]c2ccccc12)C(=O)NCc1ccccc1 [TY008, H-Tyr-DAla-Gly-Phe-Pro-Leu-Trp-NH-Bzl]",inhibition at 1 µM,[1]; [13],30 ± 9.9%
same,inhibition at 1 µM,[1]; read-out: inhibition at rNK1 receptor,30%
same,IC50,[2],31.6 nM
same,Ki,[2]; [14],14 nM
same,Ki,[2]; [15],14 nM
same,Ki,"[2]; read-out: Ki, hNK1",14 nM
same,species difference between the guinea pig and the rat (NK1),[3]; GPI Ke vs rNK1 affinity,more than 40 fold
same,Kb,"[3]; Substance P antagonist, GPI, Ke, in the presence of 1 μM naloxone",26 ± 3.9 nM
same,logD7.4,[4],3.3
"CC(C)C[C@H](NC(=O)[C@@H]1CCCN1C(=O)[C@H](Cc1ccccc1)NC(=O)CNC(=O)[C@@H](C)NC(=O)[C@@H](N)Cc1ccc(O)cc1)C(=O)N[C@@H](Cc1c[nH]c2ccccc12)C(=O)N(C)Cc1ccccc1 [TY010, H-Tyr-D-Ala-Gly-Phe-Pro-Leu-Trp-NMe-Bzl]",inhibition at 1 µM,[1]; [13],33 ± 7.6%
same,IC50,[2],3.16 nM
same,Ki,[2],100 nM
same,Ki,"[2]; read-out: Ki, hNK1",1.6 nM
same,logD7.4,[4],3.5
"CC(C)C[C@H](NC(=O)[C@@H]1CCCN1C(=O)[C@H](Cc1ccccc1)NC(=O)CNC(=O)[C@@H](C)NC(=O)[C@@H](N)Cc1ccc(O)cc1)C(=O)N[C@@H](Cc1c[nH]c2ccccc12)C(=O)OCc1ccccc1 [TY011, H-Tyr-DAla-Gly-Phe-Pro-Leu-Trp-O-Bzl]",IC50,[1]; Table 6,794 nM
same,Ki,"[1]; read-out: Ki, rNK1",270 nM
same,IC50,[2],200 nM
same,Ki,"[2]; read-out: Ki, hNK1",100 nM
same,logD7.4,[4],3.8
"CC(C)C[C@H](NC(=O)[C@@H]1CCCN1C(=O)[C@H](Cc1ccccc1)NC(=O)CNC(=O)[C@@H](C)NC(=O)[C@@H](N)Cc1ccc(O)cc1)C(=O)N[C@@H](Cc1c[nH]c2ccccc12)C(=O)NCc1cc(C(F)(F)F)cc(C(F)(F)F)c1 [TY012, H-Tyr-D-Ala-Gly-Phe-Pro-Leu-Trp-NH-3,5-Bzl(CF3)2]",IC50,[1]; Table 6,100 nM
same,IC50,[2],1.26 nM
same,logD7.4,[4],>4
"CC(C)C[C@H](NC(=O)[C@@H]1CCCN1C(=O)[C@H](Cc1ccccc1)NC(=O)CNC(=O)[C@@H](C)NC(=O)[C@@H](N)Cc1ccc(O)cc1)C(=O)N[C@@H](Cc1c[nH]c2ccccc12)C(=O)N(C)Cc1cc(C(F)(F)F)cc(C(F)(F)F)c1 [TY013, H-Tyr-D-Ala-Gly-Phe-Pro-Leu-Trp-NMe-3,5-Bzl(CF3)2]",IC50,[1]; Table 6,20 nM
same,IC50,[2],3.16 nM
same,Ki,[2],6.1 nM
same,Ki,[2]; [14],1.4 nM
same,Ki,[2]; [15],1.4 nM
same,logD7.4,[4],>4
"CCCC[C@@H]1NC(=O)[C@H](Cc2ccccc2)NC(=O)CNC(=O)[C@H](NC(=O)[C@@H](N)Cc2ccc(O)cc2)CSSC[C@H](C(=O)N[C@@H](Cc2c[nH]c3ccccc23)C(=O)NCc2cc(C(F)(F)F)cc(C(F)(F)F)c2)NC(=O)[C@@H]2CCCN2C1=O [TY038, [D-Cys^2, D-Cys^7]TY027] (HELM PEPTIDE1{Y.[dC].G.F.[Nle].P.[dC].W.[FC(F)(F)c1cc(CN[*:1])cc(C(F)(F)F)c1]}$PEPTIDE1,PEPTIDE1,2:R3-7:R3$$$V2.0; N-terminus assumed)",IC50,[5],126 nM
same,Ki,[5],55.5 nM
same,IC50,[6],1.58 nM
same,Ki,[6],156 nM
same,Ki(μ)/Ki(δ),"[6]; Table 20, ratio rMOR Ki / hDOR Ki",2.9
same,Ki,"[6]; read-out: Ki, rMOR, [3H]DAMGO",160 nM
same,IC50,[1]; Table 20,20 nM
same,Ki(hNK1)/Ki(rNK1),"[1]; Table 20, species ratio",28
same,Ki,"[1]; Table 39, read-out: Affinity rNK1 (Ki; nM)",7.11 nM
same,Ki,"[1]; read-out: Ki, rNK1",7.1 nM
same,IC50,[2],0.501 nM
same,Ki,[2],0.24 nM
same,Ki,"[2]; read-out: Ki, hNK1",0.25 nM
same,Emax,"[7]; Table 21, net total bound/basal binding × 100, read-out: Emax (%), hDOR",87%
same,EC50,"[7]; Table 39, read-out: GTP binding hDOR EC50",14 nM
same,Emax,"[7]; Table 39, read-out: GTP binding hDOR Emax",87%
same,Emax,"[7]; net total bound/basal binding × 100, read-out: Emax, hDOR, [35S]GTP-γ-S binding",87%
same,EC50,"[8]; LogEC50, rMOR",20 nM
same,Emax,"[8]; read-out: Emax (%), rMOR",12%
same,Emax,"[8]; read-out: Emax, rMOR, [35S]GTP-γ-S binding",< 20%
same,EC50,[8]; read-out: GTP binding rMOR EC50,21.7 nM
same,Emax,[8]; [16],11%
same,IC50,"[9]; Table 39, read-out: MVD opioid(delta) agonist (IC50; nM)",18.9 nM
same,IC50,"[9]; electrically stimulated isolated tissue, read-out: MVD (δ), IC50",19 nM
same,"Opioid agonist GPI (μ), % inh.","[10]; Table 22, at 1 uM, no antagonist activity observed at the tested concentration",3% inh. at 1 uM^d
same,GPI/LMMP opioid(mu) Antagonist,[10]; Table 39,none
same,"GPI/LMMP opioid(mu) agonist, % at 1 uM","[10]; Table 39, at 1 uM",3% at
same,agonist effect in the functional assay using GPI,"[10]; at the concentration of 1 μM, words",nearly no agonist effect
same,Kb,"[3]; Substance P antagonist, GPI, Ke (nM), Table 22, in the presence of 1 μM naloxone",12 ± 1.4 nM
same,GPI/LMMP SP Agonist (IC50; nM),[3]; at 100 nM,none
same,half-life at 50 μg/mL,[11],> 6 h
CCCC[C@H](NC(=O)[C@H](Cc1ccccc1)NC(=O)CNC(=O)[C@@H](C)NC(=O)[C@@H](N)Cc1ccc(O)cc1)C(=O)N1CCC[C@H]1C(=O)NC(COC1OC(CO)C(O)C(O)C1O)C(=O)N[C@@H](Cc1c[nH]c2ccccc12)C(=O)NCc1cc(C(F)(F)F)cc(C(F)(F)F)c1 (stereo partly drawn) [TY041],Emax,[7]; [17],62%
same,Emax,[7]; [18],62%
same,Emax,[8]; [19],42%
same,Emax,[8]; [20],42%
same,solubility,[12],< 1 µg/mL
CC(C)C[C@H](NC(=O)[C@@H]1CCCN1C(=O)C(COC1OC(CO)C(O)C(O)C1O)NC(=O)[C@H](Cc1ccccc1)NC(=O)CNC(=O)[C@@H](C)NC(=O)[C@@H](N)Cc1ccc(O)cc1)C(=O)N[C@@H](Cc1c[nH]c2ccccc12)C(=O)NCc1cc(C(F)(F)F)cc(C(F)(F)F)c1 (stereo partly drawn) [TY042],Emax,[7]; [17],47%
same,Emax,[7]; [18],47%
same,Emax,[8]; [19],28%
same,Emax,[8]; [20],28%
same,GPI/LMMP SP Agonist (IC50; nM),[3]; at 10 nM,none
same,solubility,[12],1.4 µg/mL
CCCC[C@H](NC(=O)[C@H](Cc1ccccc1)NC(=O)CNC(=O)[C@@H](C)NC(=O)[C@@H](N)Cc1ccc(O)cc1)C(=O)N[C@@H](COC1O[C@H](CO)[C@@H](O)[C@H](O)[C@H]1O)C(=O)N[C@@H](CC(C)C)C(=O)N[C@@H](Cc1c[nH]c2ccccc12)C(=O)NCc1cc(C(F)(F)F)cc(C(F)(F)F)c1 (stereo partly drawn) [TY044],Ki,[6],3370 nM
same,Ki,[2],1.3 nM
same,EC50,[8]; GTP binding rMOR EC50 (nM),380 nM
same,Emax,[8]; [16],85%
same,Emax,[8]; read-out: GTP binding rMOR Emax (%),85%
same,IC50,[9],18 nM
same,Kb,"[3]; GPI/LMMP SP Antagonist (Ke; nM), Table 24",18.4 nM
same,solubility thermodynamic,[12],< 1 µg/mL
